Test results from PubChem BioAssay (NCI).
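Tested at 5 concentrations; 48 h exposure; 96-well plates; endpoints linearly interpolated, else capped at highest concentration. GI50 is the concentration that inhibits growth by half. At the TGI there is no net growth.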

What was measured:
Assay in all cases: NCI anticancer screen, dose series, 48 h; in the data active means GI50 below about 0.43 µM; inactive means the rest
[1] = system: SF-268 CNS
[2] = system: HOP-62 NSCLC
[3] = system: UACC-62 melanoma
[4] = system: 786-0 renal
[5] = system: M14 melanoma
[6] = system: NCI-H522 lung
[7] = system: OVCAR-3 ovarian
[8] = system: MOLT-4 leukemia
[9] = system: MDA-MB-231 breast
[10] = system: HT29 colon

COc1ccc(C(CC(=O)c2ccccc2)C(C(=O)c2ccccc2)C(c2ccc(OC)cc2)C2C(=O)NC(=O)NC2=O)cc1 (configuration not stated)
72.6 µM: TGI [6]
75.4 µM: TGI [1]
44.4 µM: TGI [7]
> 100 µM: TGI [4] | TGI [8]
inactive: GI50 [1] 12.8 µM | GI50 [2] 26.3 µM | GI50 [3] 16.2 µM | GI50 [4] 27.8 µM | GI50 [5] 19.8 µM | GI50 [6] 16.2 µM | GI50 [7] 11.9 µM | GI50 [8] 60.7 µM | GI50 [9] 2.24 µM
60.8 µM: TGI [5]
48.9 µM: TGI [3]
66.6 µM: TGI [2]
16.2 µM: TGI [9]

CC(C)(C)c1nc2c(o1)C(=Nc1ccccc1)c1ccccc1C2=O
10.2 µM: TGI [6]
6.24 µM: TGI [7]
6.1 µM: TGI [5]
> 100 µM: TGI [8]
31 µM: TGI [2]
64.3 µM: TGI [4]
21 µM: TGI [1]
57.8 µM: TGI [10]
5.08 µM: TGI [3]

O=C(/C=C/c1ccc(OCCCCCCCCCCOc2ccc(/C=C/C(=O)c3ccc(Cl)cc3)cc2)cc1)c1ccc(Cl)cc1
> 100 µM: TGI [1] | TGI [2] | TGI [3] | TGI [4] | TGI [6] | TGI [7] | TGI [10] | TGI [8]

CS(=O)(=O)C1S(=O)(=O)OCCOS1(=O)=O
> 100 µM: TGI [1] | TGI [2] | TGI [3] | TGI [4] | TGI [5] | TGI [6] | TGI [7] | TGI [10] | TGI [8]

O=[N+]([O-])c1ccccc1S(=O)c1ccccc1 (configuration not stated)
> 100 µM: TGI [1] | TGI [2] | TGI [3] | TGI [4] | TGI [5] | TGI [6] | TGI [7] | TGI [10] | TGI [8]

COc1cc(OC)cc(N2CCC(c3c(N)nc(N)nc3Cl)CC2)c1
> 100 µM: TGI [1] | TGI [2] | TGI [3] | TGI [4] | TGI [5] | TGI [6] | TGI [7] | TGI [8]

O=C1c2ccn(CCCCN3CCOCC3)c2C(=O)c2c1c(O)c1ccccc1c2O
6.32 µM: TGI [5]
25.2 µM: TGI [4]
97 µM: TGI [10]
30.9 µM: TGI [1]
inactive: GI50 [1] 9.44 µM | GI50 [2] 14.7 µM | GI50 [4] 6.34 µM | GI50 [5] 2.36 µM | GI50 [6] 40.3 µM | GI50 [7] 1.62 µM | GI50 [10] 3.75 µM | GI50 [9] 12.7 µM
34.5 µM: TGI [2]
32.4 µM: TGI [9]
8.77 µM: TGI [7]
> 100 µM: TGI [6]

O=CC1=CCCC2(C1)OCCO2
> 100 µM: TGI [1] | TGI [2] | TGI [3] | TGI [4] | TGI [5] | TGI [6] | TGI [7] | TGI [10]

Cc1ccc(S(=O)(=O)N(C)C)cc1[N+](=O)[O-]
inactive: GI50 [1] > 100 µM | GI50 [2] > 100 µM | GI50 [3] > 100 µM | GI50 [4] > 100 µM | GI50 [5] > 100 µM | GI50 [6] > 100 µM | GI50 [7] > 100 µM | GI50 [10] > 100 µM | GI50 [9] > 100 µM
> 100 µM: TGI [1] | TGI [2] | TGI [3] | TGI [4] | TGI [5] | TGI [6] | TGI [7] | TGI [10] | TGI [9]

COc1ccc(CC(=O)c2cc(OC)c(OC)cc2C)cc1OC
> 100 µM: TGI [1] | TGI [2] | TGI [3] | TGI [4] | TGI [5] | TGI [6] | TGI [7] | TGI [10] | TGI [8]
